The test system of assay [1] is HCV genotype 1a (H77 strain) replicon in HUH-7 cells. Nature of the assay: HCV replicon luciferase reporter assay, genotype 1a. It counts as cell-based. The following applies: Hepatitis C virus, Huh-7, 72 h, HCV genotype 1a replicon luciferase assay, 3 days incubation. The source says:
(§1) Generation of HCV Replicon
(§2) An HCV replicon whole cell system was established as described by Lohmann V, Korner F, Koch J, Herian U, Theilmann L, Bartenschlager R., Science 285(5424):110-3 (1999) and modified to introduce a luciferase reporter, as first described by Krieger et al (Krieger N, Lohmann V, and Bartenschlager R, J. Virol. 75(10):4614-4624 (2001)). CDNA encoding a humanized form of the Renilla luciferase gene and a linker sequence fused directly to the 3′-end of the luciferase gene were introduced into the replicon construct using an Asc1 restriction site located in core, directly upstream of the neomycin marker gene. The adaptive mutation at position 1179 (serine to isoleucine) was also introduced (Blight K J, Kolykhalov, A A, Rice, C M, Science 290(5498):1972-1974). A stable cell line constitutively expressing this HCV replicon construct was generated by first linearizing plasmid DNAs with ScaI. RNA transcripts were synthesized in vitro using the T7 MegaScript transcription kit (Ambion, Austin, Tex.) according to manufacturer's directions. In vitro transcripts of the cDNA were transfected into the human hepatoma cell line, HUH-7. […] Resulting cell lines were characterized for positive and negative strand RNA production and protein production over time.
A stable HCV replicon luciferase reporter cell line representing the genotype 1a H77 strain (Yanagi M, Purcell R H, Emerson S U, et al. Transcripts from a single full-length cDNA clone of hepatitis C virus are infectious when directly transfected into the liver of a chimpanzee. Proc Natl Acad Sci USA 1997; 94(16):8738-8743) was generated as described previously for the genotype 1b(Con1) replicon luciferase cell line. The replicon construct was modified by introducing mutations were introduced into the genes encoding the NS3 helicase domain (proline replaced by leucine at position 1496) and NSSA (serine to isoleucine at position 2204) to improve replication in cell culture.
(§3) HCV Replicon Luciferase Reporter Assay
(§4) HCV replicon luciferase assays were developed to monitor the inhibitory effects of compounds described in the disclosure on HCV genotypes 1a and 1b viral replication. HUH-7 cells, constitutively expressing the HCV replicon, were grown in Dulbecco's Modified Eagle Media (DMEM) (Gibco-BRL) containing 10% Fetal calf serum (FCS) (Sigma) and 1 mg/mL G418 (Gibco-BRL). Compounds were serially diluted 3 folds in DMSO for a twenty-point titration and subsequently transferred to sterile 384-well tissue-culture treated plates (Corning cat #3571). The plates were then seeded with 50 μL of cells at a density of 3.0×10^3 cells/well in DMEM containing 4% FCS (final DMSO concentration at 0.5%). After 3 days incubation at 37° C., cells were analyzed for Renilla Luciferase activity using the EnduRen as substrate (Promega cat #E6485). The EnduRen substrate was diluted in DMEM and then added to the plates to a final concentration of 7.5 μM. The plates were incubated for 2 hrs at 37° C. and then read immediately for 30 seconds with Viewlux Imager (PerkinElmer) using a luminescence program. To assess cytotoxicity of compounds, CC50 values were generated by multiplexing the EnduRen-containing plates with Cell Titer-Blue (Promega, cat # G8082). Cell-Titer Blue (3 μL) was added to each well and incubated for 8 hrs at 37° C. The fluorescence signal from each well was read, with an excitation wavelength at 525/10 nm and an emission wavelength of 598/10 nm, using the Viewlux Imager.
(§5) The EC50 values for compounds were calculated by using a four-parameter logistic equation: y=A+((B−A)/(1+((C/x)^D))), where A and B denotes minimal and maximal % inhibition, respectively, C is the EC50, D is the hill slope and x represents compound concentration.

Assay [2] deals with HCV genotype 1b (Con1) replicon in HUH-7 cells. Nature of the assay: HCV replicon luciferase reporter assay, genotype 1b. It counts as cell-based. The note with it: Hepatitis C virus, Huh-7, 72 h, HCV genotype 1b replicon luciferase assay, 3 days incubation.
Description: as §1
as §2, with “time. […]” for “time.”
as §3, §4, §5

[3] abbreviates: range class, read-out: LE_1a (EC50, range).
The mark [4] stands for this setting: range class, read-out: LE_1b (EC50, range).

Like-named read-outs stand apart in the source and are kept apart here.

In the case of `COc1cnc(O[C@@H]2C[C@H]3C(=O)N[C@]4(C(=O)NS(=O)(=O)C5(F)CC5)C[C@H]4/C=C\CC[C@@H](C)C[C@@H](C)[C@H](NC(=O)OC(C)(C)C(F)(F)F)C(=O)N3C2)c2ccccc12` [Compound 14, 1,1,1-trifluoro-2-methylpropan-2-yl((2R,6S,7R,9R,13aS,14aR,16aS,Z)-14a-(((1-fluorocyclopropyl)sulfonyl)carbamoyl)-2-((4-methoxyisoquinolin-1-yl)oxy)-7,9-dimethyl-5,16-dioxo-1,2,3,5,6,7,8,9,10,11,13a,14,14a,15,16,16a-hexadecahydrocyclopropa[e]pyrrolo[1,2-a][1,4]diazacyclopentadecin-6-yl)carbamate], the EC50 in assay [1] (setting [3]) and in assay [2] (setting [4]) was less than 5.46 nM in each case.

On to `COc1cnc(O[C@@H]2C[C@H]3C(=O)N[C@]4(C(=O)NS(=O)(=O)C5(F)CC5)C[C@H]4/C=C\CC[C@H](C)C[C@@H](C)[C@H](NC(=O)OC(C)(C)C(F)(F)F)C(=O)N3C2)c2ccccc12` [Compound 15, 1,1,1-trifluoro-2-methylpropan-2-yl((2R,6S,7R,9S,13aS,14aR,16aS,Z)-14a-(((1-fluorocyclopropyl)sulfonyl)carbamoyl)-2-((4-methoxyisoquinolin-1-yl)oxy)-7,9-dimethyl-5,16-dioxo-1,2,3,5,6,7,8,9,10,11,13a,14,14a,15,16,16a-hexadecahydrocyclopropa[e]pyrrolo[1,2-a][1,4]diazacyclopentadecin-6-yl)carbamate], for which the EC50 in assay [1] (setting [3]) and in assay [2] (setting [4]) was less than 5.46 nM in each case.

Consider `CCOc1cnc(O[C@@H]2C[C@H]3C(=O)N[C@]4(C(=O)NS(=O)(=O)C5CC5)C[C@H]4/C=C\CC[C@@H](C)C[C@@H](C)[C@H](NC(=O)OC(C)(C)C)C(=O)N3C2)c2ccccc12` [Compound 16, tert-butyl ((2R,6S,7R,9R,13aS,14aR,16aS,Z)-14a-((cyclopropylsulfonyl)carbamoyl)-2-((4-ethoxyisoquinolin-1-yl)oxy)-7,9-dimethyl-5,16-dioxo-1,2,3,5,6,7,8,9,10,11,13a,14,14a,15,16,16a-hexadecahydrocyclopropa[e]pyrrolo[1,2-a][1,4]diazacyclopentadecin-6-yl)carbamate], for which the EC50 in assay [1] (setting [3]) and in assay [2] (setting [4]) was less than 5.46 nM each time.

In the case of `CCOc1cnc(O[C@@H]2C[C@H]3C(=O)N[C@]4(C(=O)NS(=O)(=O)C5CC5)C[C@H]4/C=C\CC[C@@H](C)C[C@@H](C)[C@H](NC(=O)OC(C)(C)C(F)(F)F)C(=O)N3C2)c2ccccc12` [Compound 18, 1,1,1-trifluoro-2-methylpropan-2-yl((2R,6S,7R,9R,13aS,14aR,16aS,Z)-14a-((cyclopropylsulfonyl)carbamoyl)-2-((4-ethoxyisoquinolin-1-yl)oxy)-7,9-dimethyl-5,16-dioxo-1,2,3,5,6,7,8,9,10,11,13a,14,14a,15,16,16a-hexadecahydrocyclopropa[e]pyrrolo[1,2-a][1,4]diazacyclopentadecin-6-yl)carbamate], the 50% effective concentration (EC50) in assay [1] (setting [3]) and in assay [2] (setting [4]) was less than 5.46 nM in each case.

Consider `CC(C)Oc1cnc(O[C@@H]2C[C@H]3C(=O)N[C@]4(C(=O)NS(=O)(=O)C5CC5)C[C@H]4/C=C\CC[C@@H](C)C[C@@H](C)[C@H](NC(=O)OC(C)(C)C(F)(F)F)C(=O)N3C2)c2ccccc12` [Compound 20, 1,1,1-trifluoro-2-methylpropan-2-yl((2R,6S,7R,9R,13aS,14aR,16aS,Z)-14a-((cyclopropylsulfonyl)carbamoyl)-2-((4-isopropoxyisoquinolin-1-yl)oxy)-7,9-dimethyl-5,16-dioxo-1,2,3,5,6,7,8,9,10,11,13a,14,14a,15,16,16a-hexadecahydrocyclopropa[e]pyrrolo[1,2-a][1,4]diazacyclopentadecin-6-yl)carbamate], for which the EC50 in assay [1] (setting [3]) and in assay [2] (setting [4]) was less than 5.46 nM each time.

For `C[C@@H]1CC/C=C\[C@@H]2C[C@@]2(C(=O)NS(=O)(=O)C2CC2)NC(=O)[C@@H]2C[C@@H](Oc3ncc(OC4CC4)c4ccccc34)CN2C(=O)[C@@H](NC(=O)OC(C)(C)C)[C@H](C)C1` [Compound 22, tert-butyl ((2R,6S,7R,9R,13aS,14aR,16aS,Z)-2-((4-cyclopropoxyisoquinolin-1-yl)oxy)-14a-((cyclopropylsulfonyl)carbamoyl)-7,9-dimethyl-5,16-dioxo-1,2,3,5,6,7,8,9,10,11,13a,14,14a,15,16,16a-hexadecahydrocyclopropa[e]pyrrolo[1,2-a][1,4]diazacyclopentadecin-6-yl)carbamate], the EC50 in assay [1] (setting [3]) is less than 5.46 nM; in assay [1] (read-out: LE_1a (EC50)), 0.43 nM; in assay [2] (setting [4]), less than 5.46 nM; in assay [2] (read-out: LE_1b (EC50)), 0.4 nM.

`C[C@@H]1CC/C=C\[C@@H]2C[C@@]2(C(=O)NS(=O)(=O)C2CC2)NC(=O)[C@@H]2C[C@@H](Oc3ncc(OC4CC4)c4ccccc34)CN2C(=O)[C@@H](NC(=O)OC(C)(C)C(F)(F)F)[C@H](C)C1` [Compound 24, 1,1,1-trifluoro-2-methylpropan-2-yl((2R,6S,7R,9R,13aS,14aR,16aS,Z)-2-((4-cyclopropoxyisoquinolin-1-yl)oxy)-14a-((cyclopropylsulfonyl)carbamoyl)-7,9-dimethyl-5,16-dioxo-1,2,3,5,6,7,8,9,10,11,13a,14,14a,15,16,16a-hexadecahydrocyclopropa[e]pyrrolo[1,2-a][1,4]diazacyclopentadecin-6-yl)carbamate]: the EC50 in assay [1] (setting [3]) and in assay [2] (setting [4]) was less than 5.46 nM throughout.

In the case of `C[C@H]1CC/C=C\[C@@H]2C[C@@]2(C(=O)NS(=O)(=O)C2CC2)NC(=O)[C@@H]2C[C@@H](Oc3ncc(OC4CC4)c4ccccc34)CN2C(=O)[C@@H](NC(=O)OC(C)(C)C(F)(F)F)[C@H](C)C1` [Compound 25, 1,1,1-trifluoro-2-methylpropan-2-yl((2R,6S,7R,9S,13aS,14aR,16aS,Z)-2-((4-cyclopropoxyisoquinolin-1-yl)oxy)-14a-((cyclopropylsulfonyl)carbamoyl)-7,9-dimethyl-5,16-dioxo-1,2,3,5,6,7,8,9,10,11,13a,14,14a,15,16,16a-hexadecahydrocyclopropa[e]pyrrolo[1,2-a][1,4]diazacyclopentadecin-6-yl)carbamate], the half-maximal effective concentration (EC50) in assay [1] (setting [3]) and in assay [2] (setting [4]) was 4.82 to 103 nM in each case.

For the origin of these results see patent publication US9499550B2 (BRISTOL-MYERS SQUIBB COMPANY, priority 2012, dated 2016).
